Holding throughout (format): biochemical
The target of one assay is T1, Btk (Homo sapiens, UniProt Q06187).
T1 construct: purified from insect cells as a full-length construct containing a N-terminal 6X-His tag; His6 (N); made in house; host or cells: insect cells (Method C)
The assay can be described thus: Btk in vitro inhibitory activity (one of Method A TR-FRET, Method B electrophoretic mobility shift, Method C radiometric filter binding). The method in brief: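 Three alternative formats were used. A radiometric filter-binding read used 8 nM full-length His-BTK with 0.2 mg/mL poly(Glu-Tyr) 4:1 (C); microfluidic separation of 1 μM FAM-peptide by 1 nM BTK gave IC50 from 12-point curves (B); TR-FRET at Km ATP, 0.5 nM Btk, gave Ki(app)-derived IC50 (A).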

Another assay concerns the target T2, TEC (Homo sapiens, UniProt P42680).
T2 sequence (P42680 1-631): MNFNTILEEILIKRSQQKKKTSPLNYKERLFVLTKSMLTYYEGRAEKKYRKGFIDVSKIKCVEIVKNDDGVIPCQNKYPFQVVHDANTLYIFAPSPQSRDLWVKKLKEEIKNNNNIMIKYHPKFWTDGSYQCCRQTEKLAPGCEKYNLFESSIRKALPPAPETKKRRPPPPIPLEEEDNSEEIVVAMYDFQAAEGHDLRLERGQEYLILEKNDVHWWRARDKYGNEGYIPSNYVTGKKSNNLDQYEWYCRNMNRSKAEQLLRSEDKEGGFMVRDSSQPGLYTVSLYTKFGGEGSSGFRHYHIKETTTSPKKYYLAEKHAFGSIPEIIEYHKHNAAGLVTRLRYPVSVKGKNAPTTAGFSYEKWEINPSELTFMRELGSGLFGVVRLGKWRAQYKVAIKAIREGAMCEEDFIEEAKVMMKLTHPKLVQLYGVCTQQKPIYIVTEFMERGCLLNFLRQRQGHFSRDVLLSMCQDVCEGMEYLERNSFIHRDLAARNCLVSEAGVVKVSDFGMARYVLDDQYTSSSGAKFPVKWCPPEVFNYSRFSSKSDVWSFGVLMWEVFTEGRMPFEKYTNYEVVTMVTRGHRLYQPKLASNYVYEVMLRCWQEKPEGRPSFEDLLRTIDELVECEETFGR
The assay can be described thus: Inhibition of a panel of kinases (in vitro HotSpot kinase assay, 33P-ATP, 1 μM ATP). The conditions noted are these: for IC50: HotSpot kinase assay, 1 μM ATP; for TEC/Btk: ratio of TEC IC50 to Btk IC50 (selectivity). An outline of the steps: (§1)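 Radiometric read-out: 33P transfer to a suitable substrate by each purified enzyme, ATP at 1 μM. Values are degree of inhibition.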

The next assay has as its target T3, panel of kinases (Homo sapiens, UniProt P51813).
T3 sequence (P51813 1-675): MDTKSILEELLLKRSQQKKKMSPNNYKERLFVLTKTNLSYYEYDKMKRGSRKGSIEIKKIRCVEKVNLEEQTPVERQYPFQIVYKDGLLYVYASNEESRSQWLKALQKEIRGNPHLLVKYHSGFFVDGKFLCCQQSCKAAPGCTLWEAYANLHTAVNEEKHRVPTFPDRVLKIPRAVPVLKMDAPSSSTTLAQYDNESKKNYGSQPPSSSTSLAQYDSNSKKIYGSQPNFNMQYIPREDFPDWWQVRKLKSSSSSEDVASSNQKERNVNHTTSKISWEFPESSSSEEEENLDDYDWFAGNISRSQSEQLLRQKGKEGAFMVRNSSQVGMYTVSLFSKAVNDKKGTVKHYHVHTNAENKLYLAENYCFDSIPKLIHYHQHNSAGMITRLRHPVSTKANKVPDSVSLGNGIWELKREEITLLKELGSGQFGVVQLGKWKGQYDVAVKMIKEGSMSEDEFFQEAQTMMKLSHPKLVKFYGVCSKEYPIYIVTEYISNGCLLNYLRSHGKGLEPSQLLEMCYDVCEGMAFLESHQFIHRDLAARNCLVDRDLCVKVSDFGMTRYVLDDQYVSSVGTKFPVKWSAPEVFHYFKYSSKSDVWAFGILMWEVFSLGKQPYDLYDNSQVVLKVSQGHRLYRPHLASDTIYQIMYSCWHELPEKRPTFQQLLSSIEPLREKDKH
The assay can be described thus: Inhibition of a panel of kinases (in vitro HotSpot kinase assay, 33P-ATP, 1 μM ATP), other kinases. The conditions noted are these: BMX wild-type, read-out: BMX-WT IC50. An outline of the steps: as §1

[1] abbreviates: wild-type Btk, read-out: Btk-WT IC50.
The mark [2] stands for this setting: method is one of A, B or C, not stated which, read-out: IC50 values against Btk.

These results are taken from US20180194762A1 (Pharmacyclics LLC, priority 2017, published 2018).

Read-outs that look alike come from different tables or passages of the source.

What is called IC50 is the concentration at which inhibition is half-maximal.

T1 sequence (Q06187 whole entry): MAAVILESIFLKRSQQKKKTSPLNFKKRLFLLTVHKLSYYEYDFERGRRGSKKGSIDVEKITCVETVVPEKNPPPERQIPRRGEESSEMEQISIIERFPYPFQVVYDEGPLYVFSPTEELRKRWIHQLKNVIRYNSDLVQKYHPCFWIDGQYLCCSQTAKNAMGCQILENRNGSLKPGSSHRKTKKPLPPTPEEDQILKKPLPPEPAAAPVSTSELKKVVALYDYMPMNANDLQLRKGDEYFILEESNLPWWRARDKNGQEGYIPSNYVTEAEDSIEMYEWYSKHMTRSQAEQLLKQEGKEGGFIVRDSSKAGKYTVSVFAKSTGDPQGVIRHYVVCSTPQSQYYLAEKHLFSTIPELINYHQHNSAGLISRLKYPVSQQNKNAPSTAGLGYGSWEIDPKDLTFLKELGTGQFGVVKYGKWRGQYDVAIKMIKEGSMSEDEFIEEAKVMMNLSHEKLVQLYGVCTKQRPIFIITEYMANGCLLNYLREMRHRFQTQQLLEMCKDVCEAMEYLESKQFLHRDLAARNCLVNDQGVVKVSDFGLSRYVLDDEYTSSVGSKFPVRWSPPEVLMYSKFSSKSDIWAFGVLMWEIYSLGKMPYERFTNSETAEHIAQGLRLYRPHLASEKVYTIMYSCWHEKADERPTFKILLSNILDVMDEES

Take `C=CC(=O)N1CC[C@@H](Nc2n[nH]c3nccc(-c4ccc(CNC(=O)c5ccc(OC)cc5)c(F)c4)c23)C1` [Compound 49, (R)—N-(4-(3-((1-acryloylpyrrolidin-3-yl)amino)-1H-pyrazolo[3,4-b]pyridin-4-yl)-2-fluorobenzyl)-4-methoxybenzamide]: the IC50 at Btk (setting [1]) was 1.78 nM; against TEC, 70 nM; on panel of kinases, 89 nM. Besides, the TEC/Btk at TEC is reported as 39.

In the case of `CC(C)(C)c1nc(C(=O)NCc2ccc(-c3ccnc4[nH]nc(N[C@H]5CCNC5)c34)cc2F)no1` [Compound 50, 5-tert-butyl-N-{[2-fluoro-4-(3-{[(3S)-pyrrolidin-3-yl]amino}-1H-pyrazolo[3,4-b]pyridin-4-yl)phenyl]methyl}-1,2,4-oxadiazole-3-carboxamide], the half-maximal inhibitory concentration (IC50) is 3.2 nM at Btk (setting [1]), 2960 nM against TEC and 7440 nM on panel of kinases. For the same molecule, the TEC/Btk at TEC amounted to 925.

Turning to `CC#CC(=O)N1CC[C@@H](Nc2n[nH]c3nccc(-c4ccc(CNC(=O)c5noc(C(C)(C)C)n5)c(F)c4)c23)C1` [Example 24, N-{[4-(3-{[(3R)-1-(but-2-ynoyl)pyrrolidin-3-yl]amino}-1H-pyrazolo[3,4-b]pyridin-4-yl)-2-fluorophenyl]methyl}-5-tert-butyl-1,2,4-oxadiazole-3-carboxamide], the IC50 was less than 10 nM at Btk (setting [2]), 0.139 nM at Btk (setting [1]), 22 nM on TEC and 44 nM at panel of kinases.

Turning to `CN(C)C/C=C/C(=O)N1CC[C@@H](Nc2n[nH]c3nccc(-c4ccc(CNC(=O)c5noc(C(C)(C)C)n5)c(F)c4)c23)C1` [Example 25, 5-tert-butyl-N-{[4-(3-{[(3R)-1-[(2E)-4-(dimethylamino)but-2-enoyl]pyrrolidin-3-yl]amino}-1H-pyrazolo[3,4-b]pyridin-4-yl)-2-fluorophenyl]methyl}-1,2,4-oxadiazole-3-carboxamide], the IC50 was less than 10 nM on Btk (setting [2]), 0.481 nM on Btk (setting [1]), 175 nM against TEC and 794 nM on panel of kinases.

For the molecule `C=CC(=O)N1CC[C@@H](Nc2n[nH]c3nccc(-c4ccc(CN5CCn6c(cc7c6CC(C)(C)C7)C5=O)c(F)c4)c23)C1` [Example 53], the 50% inhibitory concentration (IC50) was less than 10 nM at Btk (setting [2]), 0.623 nM at Btk (setting [1]), 152 nM at TEC and 310 nM on panel of kinases. Moreover, the TEC/Btk at TEC is reported as 244.

For the molecule `C[C@H]1NCCC[C@H]1Nc1n[nH]c2nccc(-c3ccc(CNC(=O)c4noc(C(C)(C)C)n4)c(F)c3)c12` [Example 55], the figures for the concentration for half-maximal inhibition (IC50) on Btk (setting [1]), at TEC and at panel of kinases were 29.2 nM, greater than 10000 nM and greater than 10000 nM, respectively. Moreover, the TEC/Btk at TEC is on record as greater than 100.

`CC(C)(C)c1cccc(C(=O)NCc2ccc(-c3ccnc4[nH]nc(N[C@@H]5CCNC5)c34)cc2F)c1` [Example 62, 3-tert-butyl-N-{[2-fluoro-4-(3-{[(3R)-pyrrolidin-3-yl]amino}-1H-pyrazolo[3,4-b]pyridin-4-yl)phenyl]methyl}benzamide]: the figures for the IC50 at Btk (setting [1]), against TEC and at panel of kinases were 861 nM, 3340 nM and 2140 nM, respectively. Moreover, the TEC/Btk at TEC was found to be 4.

`CC(C)(C)c1cc(C(=O)NCc2ccc(-c3ccnc4[nH]nc(N[C@@H]5CCNC5)c34)cc2F)no1` [Example 63, 5-tert-butyl-N-{[2-fluoro-4-(3-{[(3R)-pyrrolidin-3-yl]amino}-1H-pyrazolo[3,4-b]pyridin-4-yl)phenyl]methyl}-1,2-oxazole-3-carboxamide]: the half-inhibitory concentration (IC50) is 10.2 nM at Btk (setting [1]), 7860 nM on TEC and greater than 10000 nM on panel of kinases. Moreover, the TEC/Btk at TEC came to 771.

On to `CC(C)(C)n1ccc(C(=O)NCc2ccc(-c3ccnc4[nH]nc(N[C@@H]5CCNC5)c34)cc2F)n1` [Example 64, 1-tert-butyl-N-{[2-fluoro-4-(3-{[(3R)-pyrrolidin-3-yl]amino}-1H-pyrazolo[3,4-b]pyridin-4-yl)phenyl]methyl}-1H-pyrazole-3-carboxamide], for which the half-maximal inhibitory concentration (IC50) was 167 nM on Btk (setting [1]), greater than 10000 nM on TEC and greater than 10000 nM on panel of kinases. In addition, at TEC, the TEC/Btk is greater than 100.

For `C=CC(=O)N1CC[C@@H](Nc2n[nH]c3nccc(-c4ccc(CNC(=O)c5cc(C(C)(C)C)on5)c(F)c4)c23)C1` [Example 65, 5-tert-butyl-N-{[2-fluoro-4-(3-{[(3R)-1-(prop-2-enoyl)pyrrolidin-3-yl]amino}-1H-pyrazolo [3,4-b]pyridin-4-yl)phenyl]methyl}-1,2-oxazole-3-carboxamide], the IC50 on Btk (setting [2]) is less than 10 nM; on Btk (setting [1]) it was 0.0792 nM; against TEC it was 42 nM; on panel of kinases it was 78 nM. Moreover, at TEC, the TEC/Btk was 529.

Take `C=CC(=O)N1CC[C@@H](Nc2n[nH]c3nccc(-c4ccc(CNC(=O)c5ccn(C(C)(C)C)n5)c(F)c4)c23)C1` [Example 66, 1-tert-butyl-N-{[2-fluoro-4-(3-{[(3R)-1-(prop-2-enoyl)pyrrolidin-3-yl]amino}-1H-pyrazolo[3,4-b]pyridin-4-yl)phenyl]methyl}-1H-pyrazole-3-carboxamide]: the 50% inhibitory concentration (IC50) at Btk (setting [2]) was less than 10 nM; on Btk (setting [1]), 0.42 nM; against TEC, 403 nM; at panel of kinases it was 219 nM. Besides, the TEC/Btk on TEC is recorded as 959.

Take `C[C@H]1CC[C@@H](Nc2n[nH]c3nccc(-c4ccc(CNC(=O)c5noc(C(C)(C)C)n5)c(F)c4)c23)CN1C(=O)N(C)C` [Example 67, (2S,5R)-5-{[4-(4-{[(5-tert-butyl-1,2,4-oxadiazol-3-yl)formamido]methyl}-3-fluorophenyl)-1H-pyrazolo[3,4-b]pyridin-3-yl]amino}-N,N,2-trimethylpiperidine-1-carboxamide]: the concentration for half-maximal inhibition (IC50) on Btk (setting [2]) is less than 10 nM; on Btk (setting [1]), 0.359 nM; against TEC, 121 nM; on panel of kinases, 137 nM. Besides, the TEC/Btk on TEC is 337.

For `C[C@H]1CC[C@@H](Nc2n[nH]c3nccc(-c4ccc(CNC(=O)c5noc(C(C)(C)C)n5)c(F)c4)c23)CN1C=O` [Example 68, 5-tert-butyl-N-{[2-fluoro-4-(3-{[(3R,6S)-1-formyl-6-methylpiperidin-3-yl]amino}-1H-pyrazolo[3,4-b]pyridin-4-yl)phenyl]methyl}-1,2,4-oxadiazole-3-carboxamide], the IC50 on Btk (setting [2]) was less than 10 nM; at Btk (setting [1]) it was 0.601 nM; on TEC, 258 nM; on panel of kinases, 541 nM. Also, at TEC, the TEC/Btk was found to be 429.

As for `CC(C)(C)c1nc(C(=O)NCc2ccc(-c3ccnc4[nH]nc(N[C@@H]5CCCNC5)c34)cc2F)no1` [Example 69, 5-tert-butyl-N-{[2-fluoro-4-(3-{[(3R)-piperidin-3-yl]amino}-1H-pyrazolo[3,4-b]pyridin-4-yl)phenyl]methyl}-1,2,4-oxadiazole-3-carboxamide], the IC50 at Btk (setting [1]) worked out at 10.4 nM; on TEC it was 4510 nM; on panel of kinases it was 6970 nM. Further, the TEC/Btk on TEC stood at 434.

As to `CC(C)(C)c1nc(C(=O)NC2(c3ccc(-c4ccnc5[nH]nc(N[C@@H]6CCCNC6)c45)cc3)CC2)no1` [Example 70, 5-tert-butyl-N-{1-[4-(3-{[(3R)-piperidin-3-yl]amino}-1H-pyrazolo[3,4-b]pyridin-4-yl)phenyl]cyclopropyl}-1,2,4-oxaidazole-3-carboxamide], the figures for the IC50 on Btk (setting [1]), against TEC and on panel of kinases were 180 nM, greater than 10000 nM and greater than 10000 nM, respectively. Further, at TEC, the TEC/Btk is greater than 100.
